Reference: publication PMC12040169 (PLOS Biology, 2025)

Test: in vitro
Details: human, hela cells, % viability

| SMILES | viability at 28.5 h, 10 µM |
| --- | --- |
| Cc1cc(C)n(CC2CN(C(C)C(=O)NCc3ccco3)CCO2)n1 (stereo not drawn) [CBK305351] | 101% |
| O=C(c1cn2ccccc2n1)N1CCCN(Cc2cscn2)CC1 [CBK305352] | 104% |
| COc1ccc(C)cc1-n1ccc(C(=O)NCC2(C)CCCS2)n1 (stereo not drawn) [CBK305355] | 83.3% |
| CCc1cnc(CN(C)C2CCN(CC(=O)Nc3cccnc3)C2)o1 (stereo not drawn) [CBK305358] | 92% |
| O=C(Nc1cccc(Cl)c1)N(Cc1ccncc1)CC1CCCO1 (stereo not drawn) [CBK305362] | 93% |
| CCc1noc(C(C)N2CCN(CC(=O)NCc3ccco3)CC2)n1 (stereo not drawn) [CBK305368] | 116% |
| Cc1cnn(CC2CCCN2C(=O)CC2OCCc3ccsc32)c1 (stereo not drawn) [CBK305370] | 86.5% |
| CCc1nc(CN(C(C)=O)C2CCN(CCc3ccccn3)C2)no1 (stereo not drawn) [CBK305372] | 96.7% |
| CCc1nc(CN2CCCC(NCc3ccc(C(N)=O)cc3)C2)no1 (stereo not drawn) [CBK305373] | 94.2% |
| COc1ccc(C(=O)N2CCCN(Cc3ccc(C#N)cc3)CC2)cc1 [CBK305374] | 94.7% |
| CC(C)n1ccnc1CNc1cccc(OCC(=O)N2CCCC2)c1 [CBK305377] | 97% |
| COc1ccc(CNC(=O)CN2CCCCC2Cn2cccn2)cc1 (stereo not drawn) [CBK305379] | 93.1% |
| CCOC(=O)c1cnn(C2CCCN(C(=O)c3cscc3C)C2)c1 (stereo not drawn) [CBK305385] | 93.1% |
| CCc1cnccc1C(=O)N1CCC(NC(=O)c2cnn(C)c2)CC1 [CBK305388] | 105% |
| Cn1cc(-c2nc(C3COCCN3Cc3ccc(F)cc3)no2)cn1 (stereo not drawn) [CBK305391] | 97.7% |
| CCn1c(C(C)NC2CCN(CC(=O)OC)CC2)nc2ccccc21 (stereo not drawn) [CBK305396] | 97.9% |
| COc1cccc(NC(=O)N(CCCO)C2CCc3ccccc32)c1 (stereo not drawn) [CBK305397] | 95% |
| CCn1cc(CN2CCCN(C(=O)c3cc(C4CC4)on3)CC2)cn1 [CBK305401] | 88.1% |
| CN(Cc1cnn(C)c1)C(=O)c1ccc(Cl)cc1Br [CBK305404] | 93% |
| CC(=O)NC(CC(=O)N1CCCC(n2cccn2)C1)c1cccs1 (stereo not drawn) [CBK305405] | 94.6% |
| CCCc1[nH]ncc1C(=O)N1CCN(c2ccnc(N(C)C)n2)CC1 [CBK305406] | 96.4% |
| CCOC(=O)c1csc(C2CCCN2C(=O)CC2C=CCCC2)n1 (stereo not drawn) [CBK305407] | 97.8% |
| Cn1cc(CCNC(=O)Nc2ccc(CN3CCCC3=O)cc2)cn1 [CBK305410] | 107% |

| SMILES | viability at 28.5 h, 10 µM |
| --- | --- |
| CN(C(=O)CN1CCCCC1Cn1cccn1)C1(C#N)CCCCC1 (stereo not drawn) [CBK305412] | 90.1% |
| CCOC(=O)N1CCN(Cc2ccc(OCc3nccn3C)cc2)CC1 [CBK305413] | 94% |
| Cc1nc(CN2C(=O)CC(Cc3cnn(C)c3)C2=O)nc2ccccc12 (stereo not drawn) [CBK305415] | 105% |
| COCCc1nsc(N2CCC(Oc3cccnc3N(C)C)C2)n1 (stereo not drawn) [CBK305418] | 98.8% |
| CCn1cc(C2CN(S(=O)(=O)c3sc(C)nc3C)CCO2)cn1 (stereo not drawn) [CBK305420] | 96.8% |
| Cn1cc(C(=O)N2CCOCC2c2nc(-c3cccs3)no2)cn1 (stereo not drawn) [CBK305422] | 113% |
| CCCCNc1cc(N2CCOC(c3cnn(CC)c3)C2)nc(N)n1 (stereo not drawn) [CBK305423] | 93.8% |
| Cc1cccc(OCC(=O)NCC(c2cccs2)N2CCOCC2)c1 (stereo not drawn) [CBK305426] | 90.1% |
| CC(C)NC(=O)CN1CCC(N(C)Cc2cccc(C(F)(F)F)c2)CC1 [CBK305429] | 95% |
| C#CCNS(=O)(=O)c1cccc(C(=O)NC2CCOc3ccccc32)c1 (stereo not drawn) [CBK305430] | 111% |
| Cc1ccc(Cl)c(OC(C)C(=O)N(CCCO)Cc2ccncc2)c1 (stereo not drawn) [CBK305432] | 109% |
| CC1c2ccsc2CCN1C(=O)COc1cccc(Br)c1 (stereo not drawn) [CBK305434] | 91.9% |
| CC(Oc1cccc(C#N)c1)C(=O)N1CCCC1C(=O)NCC(F)(F)F (stereo not drawn) [CBK305435] | 93.8% |
| CC(C)c1nc(CC(=O)NCCC(=O)N2CCCc3ccccc32)cs1 [CBK305437] | 98.1% |
| Cc1nc(CCNC(=O)c2nn(-c3cccc(C(C)C)c3)cc2O)cs1 [CBK305438] | 109% |
| CC(C)OC(=O)Cc1nc(CN2CCOC(c3ccc(F)cc3)C2)cs1 (stereo not drawn) [CBK305439] | 119% |
| Cn1cc(-c2nc(C3COCCN3Cc3c(F)cccc3Cl)no2)cn1 (stereo not drawn) [CBK305441] | 79.4% |
| Cn1cc(-c2nc(C3COCCN3C(=O)c3cccc(Cl)c3)no2)cn1 (stereo not drawn) [CBK305443] | 80.1% |
| CS(=O)(=O)Nc1c[nH]nc1C1CCCN(c2cccc(F)c2C#N)C1 (stereo not drawn) [CBK305444] | 95.2% |
| O=C(NCCCn1cccn1)N1CCCN(Cc2ccc(Cl)cc2)CC1 [CBK305447] | 116% |
| CCOC(=O)c1csc(C2CCCN2C(=O)CCc2ccccc2O)n1 (stereo not drawn) [CBK305448] | 109% |
| COCCn1ccc(NC(=O)N2CCCC(c3cc(F)ccc3F)C2)n1 (stereo not drawn) [CBK305451] | 79.6% |
